Test system: synthesis of LTB4 in human whole blood
Test: human whole blood (HWB) assay, LTB4 production inhibition
Format: cell-based
Details: calcimycin 20 μM
Protocol: The compounds of the invention are additionally tested in a human whole blood (HWB) assay to determine their ability to inhibit the synthesis of LTB4 in a cellular system. Compounds are combined with heparinized human whole blood and incubated for 15 minutes at 37° C. Calcimycin (20 μM final, prepared in phosphate-buffered saline, pH 7.4) is then added and the mixture is incubated for another 30 minutes at 37° C. The samples are centrifuged for 5 min at low speed (1500×g) and the plasma layer is removed. Plasma LTB4 concentrations are then measured using an antibody-based homogenous time-resolved fluorescence method (CisBio, Bedford, Mass.). In general, the preferred potency range (IC50) of compounds in the HWB assay is between 10 nM to 10 μM, the more preferred potency range is 10 nM to 1 μM, and the most preferred potency range is 10 nM to 100 nM.

IC50	SMILES
80.7 nM	CC1CCCCN1Cc1ccc([C@H]2COc3ccccc3O2)cc1 (stereo partly drawn) [Example 68, 1-{4-[(2S)-2,3-dihydro-1,4-benzodioxin-2-yl]benzyl}-2-methylpiperidine]
165 nM	OCC1CCCN(Cc2ccc([C@H]3COc4ccccc4O3)cc2)C1 (stereo partly drawn) [Example 69, (1-{4-[(2S)-2,3-dihydro-1,4-benzodioxin-2-yl]benzyl}piperidin-3-yl)methanol]
83 nM	c1ccc2c(c1)OCC(c1ccc(CN3CCCC3)cc1)O2 (stereo not shown) [Example 200, 1-[4-(2,3-dihydro-1,4-benzodioxin-2-yl)benzyl]pyrrolidine]
155 nM	NC(=O)NC1CCN(Cc2ccc(C3COc4ccccc4O3)cc2)CC1 (racemic) [Example 53, 1-{1-[4-(2,3-dihydro-1,4-benzodioxin-2-yl)benzyl]piperidin-4-yl}urea]
145 nM	O=C(NCCO)C1CCN(Cc2ccc(C3COc4ccccc4O3)cc2)CC1 (racemic) [Example 52, 1-[4-(2,3-dihydro-1,4-benzodioxin-2-yl)benzyl]-N-(2-hydroxyethyl)piperidine-4-carboxamide]
36.5 nM	OC1CCN(Cc2ccc([C@H]3COc4cccnc4O3)cc2)CC1 [Example 186, 1-{4-[(3S)-2,3-dihydro[1,4]dioxino[2,3-b]pyridin-3-yl]benzyl}piperidin-4-ol]
149 nM	COCC(=O)NC1CCN(Cc2ccc([C@H]3COc4ccccc4O3)cc2)CC1 [Example 219, N-(1-{4-[(2S)-2,3-dihydro-1,4-benzodioxin-2-yl]benzyl}piperidin-4-yl)-2-methoxyacetamide]
27.6 nM	CC1CCN(Cc2ccc([C@H]3COc4cccnc4O3)cc2)CC1 [Example 137, (3S)-3-{4-[(4-methylpiperidin-1-yl)methyl]phenyl}-2,3-dihydro[1,4]dioxino[2,3-b]pyridine]
312 nM	NC(=O)CN1CCCC12CCN(Cc1ccc([C@H]3COc4ccccc4O3)cc1)C2 (stereo partly drawn) [Example 123, 2-(7-{4-[(2S)-2,3-dihydro-1,4-benzodioxin-2-yl]benzyl}-1,7-diazaspiro[4.4]non-1-yl)acetamide]
308 nM	O=C(O)CCCC1CCN(Cc2ccc(C3COc4ccccc4O3)cc2)CC1 (racemic) [Example 26, 4-{1-[4-(2,3-dihydro-1,4-benzodioxin-2-yl)benzyl]piperidin-4-yl}butanoic acid]
294 nM	CNC(=O)C1CCN(Cc2ccc(C3COc4ccccc4O3)cc2)CC1 (racemic) [Example 25, 1-[4-(2,3-dihydro-1,4-benzodioxin-2-yl)benzyl]-N-methylpiperidine-4-carboxamide]
285 nM	O[C@H]1CCN(Cc2ccc(C3COc4ccccc4O3)cc2)C1 (stereo partly drawn) [Example 9, (3S)-1-[4-(2,3-dihydro-1,4-benzodioxin-2-yl)benzyl]pyrrolidin-3-ol]
346 nM	CN(Cc1ccc([C@H]2COc3ccccc3O2)cc1)C1CCCCC1 [Example 67, N-{4-[(2S)-2,3-dihydro-1,4-benzodioxin-2-yl]benzyl}-N-methylcyclohexanamine]
180 nM	COC1CCN(Cc2ccc([C@H]3COc4ccccc4O3)cc2)CC1 [Example 98, 1-{4-[(2S)-2,3-dihydro-1,4-benzodioxin-2-yl]benzyl}-4-methoxypiperidine]
75.5 nM	CCN(Cc1ccc([C@H]2COc3ccccc3O2)cc1)C1CCCC1 [Example 109, N-{4-[(2S)-2,3-dihydro-1,4-benzodioxin-2-yl]benzyl}-N-ethylcyclopentanamine]
72.6 nM	NC(=O)NC1CCN(Cc2ccc([C@H]3COc4ccccc4O3)cc2)CC1 [Example 175, 1-(1-{4-[(2S)-2,3-dihydro-1,4-benzodioxin-2-yl]benzyl}piperidin-4-yl)urea]
324 nM	O=C(C1CCN(Cc2ccc(C3COc4ccccc4O3)cc2)CC1)N1CCOCC1 (racemic) [Example 37, {1-[4-(2,3-dihydro-1,4-benzodioxin-2-yl)benzyl]piperidin-4-yl}(morpholin-4-yl)methanone]
91.3 nM	CC(C)(O)C(=O)NC1CCN(Cc2ccc([C@H]3COc4ccccc4O3)cc2)CC1 [Example 220, N-(1-{4-[(2S)-2,3-dihydro-1,4-benzodioxin-2-yl]benzyl}piperidin-4-yl)-2-hydroxy-2-methylpropanamide]
256 nM	CC(=O)N1CCCC12CCN(Cc1ccc([C@H]3COc4ccccc4O3)cc1)C2 (stereo partly drawn) [Example 118, 1-(7-{4-[(2S)-2,3-dihydro-1,4-benzodioxin-2-yl]benzyl}-1,7-diazaspiro[4.4]non-1-yl)ethanone]
352 nM	O=C1CCCN1CC1CCCN(Cc2ccc(C3COc4ccccc4O3)cc2)C1 (racemic) [Example 10, 1-({1-[4-(2,3-dihydro-1,4-benzodioxin-2-yl)benzyl]piperidin-3-yl}methyl)pyrrolidin-2-one]
290 nM	CC(C)(C(=O)O)C1CCN(Cc2ccc([C@H]3COc4ccccc4O3)cc2)CC1 [Example 229, 2-(1-{4-[(2S)-2,3-dihydro-1,4-benzodioxin-2-yl]benzyl}piperidin-4-yl)-2-methylpropanoic acid]

Further lines, the compound ahead of its results:

SMILES	IC50
FC1CCN(Cc2ccc([C@H]3COc4cccnc4O3)cc2)CC1 [Example 155, (3S)-3-{4-[(4-fluoropiperidin-1-yl)methyl]phenyl}-2,3-dihydro[1,4]dioxino[2,3-b]pyridine]	95.4 nM
CCN(C)Cc1ccc([C@H]2COc3cccnc3O2)cc1 [Example 140, N-{4-[(3S)-2,3-dihydro[1,4]dioxino[2,3-b]pyridin-3-yl]benzyl}-N-methylethanamine]	33.4 nM
c1cnc2c(c1)OC[C@H](c1ccc(CN3CCn4cnnc4C3)cc1)O2 [Example 156, (3S)-3-[4-(5,6-dihydro[1,2,4]triazolo[4,3-a]pyrazin-7(8H)-ylmethyl)phenyl]-2,3-dihydro[1,4]dioxino[2,3-b]pyridine]	159 nM
CC(C)(CN1CCCC1)NCc1ccc([C@H]2COc3cccnc3O2)cc1 [Example 157, N-{4-[(3S)-2,3-dihydro[1,4]dioxino[2,3-b]pyridin-3-yl]benzyl}-2-methyl-1-(pyrrolidin-1-yl)propan-2-amine]	35 nM
CN(Cc1ccc([C@H]2COc3cccnc3O2)cc1)C1CCCC1 [Example 142, N-{4-[(3S)-2,3-dihydro[1,4]dioxino[2,3-b]pyridin-3-yl]benzyl}-N-methylcyclopentanamine]	24.4 nM
c1cnc2c(c1)OC[C@H](c1ccc(CN3CCOCC3)cc1)O2 [Example 204, (3S)-3-[4-(morpholin-4-ylmethyl)phenyl]-2,3-dihydro[1,4]dioxino[2,3-b]pyridine]	95 nM
CC(=O)N1CC[C@@H](NCc2ccc([C@H]3COc4ccccc4O3)cc2)C1 [Example 64, 1-[(3R)-3-({4-[(2S)-2,3-dihydro-1,4-benzodioxin-2-yl]benzyl}amino)pyrrolidin-1-yl]ethanone]	158 nM
c1cnc2c(c1)OC[C@H](c1ccc(CN3CCCCCC3)cc1)O2 [Example 139, (3S)-3-[4-(azepan-1-ylmethyl)phenyl]-2,3-dihydro[1,4]dioxino[2,3-b]pyridine]	13.2 nM
COC1CCCN(Cc2ccc([C@H]3COc4cccnc4O3)cc2)C1 (stereo partly drawn) [Example 158, (3S)-3-{4-[(3-methoxypiperidin-1-yl)methyl]phenyl}-2,3-dihydro[1,4]dioxino[2,3-b]pyridine]	27.5 nM
O=C1NCCC12CCN(Cc1ccc([C@H]3COc4cccnc4O3)cc1)CC2 [Example 125, 8-{4-[(3S)-2,3-dihydro[1,4]dioxino[2,3-b]pyridin-3-yl]benzyl}-2,8-diazaspiro[4.5]decan-1-one]	39.2 nM
OC[C@H]1CCCC[C@H]1NCc1ccc([C@H]2COc3ccccc3O2)cc1 [Example 87, [(1S,2R)-2-({4-[(2S)-2,3-dihydro-1,4-benzodioxin-2-yl]benzyl)amino)cyclohexyl] methanol]	268 nM
O=C1NCCCC12CCN(Cc1ccc([C@H]3COc4ccccc4O3)cc1)CC2 [Example 116, 9-{4-[(2S)-2,3-dihydro-1,4-benzodioxin-2-yl]benzyl}-2,9-diazaspiro[5.5]undecan-1-one]	310 nM
CC(=O)N1CCN(Cc2ccc([C@H]3COc4cccnc4O3)cc2)CC1 [Example 185, 1-(4-{4-[(3S)-2,3-dihydro[1,4]dioxino[2,3-b]pyridin-3-yl]benzyl}piperazin-1-yl)ethanone]	92.3 nM
O=C(O)c1ccc(CC2CCN(Cc3ccc([C@H]4COc5cccnc5O4)cc3)CC2)cc1 [Example 234, 4-[(1-{4-[(3S)-2,3-dihydro[1,4]dioxino[2,3-b]pyridin-3-yl]benzyl}piperidin-4-yl)methyl]benzoic acid]	94.8 nM
c1ccc2c(c1)OC[C@H](c1ccc(CN3CCC[C@H]4CCCC[C@@H]43)cc1)O2 [Example 85, (4aR,8aS)-1-{4-[(2S)-2,3-dihydro-1,4-benzodioxin-2-yl]benzyl}decahydroquinoline]	305 nM
CC(c1ccc([C@H]2COc3ccccc3O2)cc1)N1CCC(C(=O)O)CC1 (stereo partly drawn) [Example 227, 1-(1-{4-[(2S)-2,3-dihydro-1,4-benzodioxin-2-yl]phenyl}ethyl)piperidine-4-carboxylic acid]	307 nM
CN(Cc1ccc([C@H]2COc3ccccc3O2)cc1)C(C)(C)C [Example 81, N-{4-[(2S)-2,3-dihydro-1,4-benzodioxin-2-yl]benzyl}-N,2-dimethylpropan-2-amine]	80.7 nM
c1cnc2c(c1)OC[C@H](c1ccc(CN3CCCC3)cc1)O2 [Example 126, (3S)-3-[4-(pyrrolidin-1-ylmethyl)phenyl]-2,3-dihydro[1,4]dioxino[2,3-b]pyridine]	32.3 nM
c1cnc2c(c1)OCC(c1ccc(CN3CCOCC3)cc1)O2 (racemic) [Example 18, 3-[4-(morpholin-4-ylmethyl)phenyl]-2,3-dihydro[1,4]dioxino[2,3-b]pyridine]	176 nM

Source: patent US11957671B2, “Benzodioxane modulators of leukotriene A4 hydrolase (LTA4H) for prevention and treatment of aging-associated diseases” (Alkahest, Inc., priority 2021, dated 2024)
